Experimental data: ChEMBL document CHEMBL6071181, “Discovery of ZLC491 as a Potent, Selective, and Orally Bioavailable CDK12/13 PROTAC Degrader” (J Med Chem, 2024)
The source made the active and inactive calls. The calls are words filed in the database; no cut-off is given here.

What was measured:
[1] = biological target: T1, Protein cereblon/Cyclin-dependent kinase 12 (Homo sapiens) (UniProt Q9NYV4+Q96SW2); assay: PROTAC activity at CRBN/CDK12 in human MDA-MB-231 cells assessed as induction of CDK12 degradation incubated for 15 hrs by immunoblotting analysis; type: cell-based
[2] = biological target: T2, Protein cereblon/Cyclin-dependent kinase 13 (Homo sapiens) (UniProt Q14004+Q96SW2); assay: PROTAC activity at CRBN/CDK13 in human MDA-MB-231 cells assessed as induction of CDK13 degradation incubated for 15 hrs by immunoblotting analysis; type: cell-based
[3] = biological target: T2, Protein cereblon/Cyclin-dependent kinase 13 (Homo sapiens); assay: PROTAC activity at CRBN/CDK13 in human HCC38 cells assessed as induction of CDK13 degradation incubated for 15 hrs by immunoblotting analysis; type: cell-based; settings: dose 0.01-3 µM
[4] = biological target: T1, Protein cereblon/Cyclin-dependent kinase 12 (Homo sapiens); assay: PROTAC activity at CRBN/CDK12 in human MDA-MB-436 cells assessed as induction of CDK12 degradation incubated for 15 hrs by immunoblotting analysis; type: cell-based; settings: dose 0.01-3 µM
[5] = biological target: T1, Protein cereblon/Cyclin-dependent kinase 12 (Homo sapiens); assay: PROTAC activity at CRBN/CDK12 in human MDA-MB-231 cells assessed as induction of CDK12 degradation at 1 uM pretreated with MG132 followed by compound addition and measured after 10 hrs by immunoblotting analysis; type: cell-based
[6] = biological target: T1, Protein cereblon/Cyclin-dependent kinase 12 (Homo sapiens); assay: PROTAC activity at CRBN/CDK12 in human MDA-MB-231 cells assessed as induction of CDK12 degradation at 1 uM pretreated with MLN4924 followed by compound addition and measured after 10 hrs by immunoblotting analysis; type: cell-based
[7] = biological target: T2, Protein cereblon/Cyclin-dependent kinase 13 (Homo sapiens); assay: PROTAC activity at CRBN/CDK13 in human MDA-MB-231 cells assessed as induction of CDK13 degradation at 1 uM pretreated with MLN4924 followed by compound addition and measured after 10 hrs by immunoblotting analysis; type: cell-based
[8] = biological target: T1, Protein cereblon/Cyclin-dependent kinase 12 (Homo sapiens); assay: PROTAC activity at CRBN/CDK12 in human MDA-MB-231 cells assessed as induction of CDK12 degradation at 1 uM pretreated with bafilomycin followed by compound addition and measured after 10 hrs by immunoblotting analysis; type: cell-based
[9] = biological target: T2, Protein cereblon/Cyclin-dependent kinase 13 (Homo sapiens); assay: PROTAC activity at CRBN/CDK13 in human MDA-MB-231 cells assessed as induction of CDK13 degradation at 1 uM pretreated with bafilomycin followed by compound addition and measured after 10 hrs by immunoblotting analysis; type: cell-based
[10] = biological target: T1, Protein cereblon/Cyclin-dependent kinase 12 (Homo sapiens); assay: PROTAC activity at CRBN/CDK12 in human MDA-MB-231 cells assessed as induction of CDK12 degradation at 1 uM pretreated with pomalidomide followed by compound addition and measured after 10 hrs by immunoblotting analysis; type: cell-based
[11] = biological target: T2, Protein cereblon/Cyclin-dependent kinase 13 (Homo sapiens); assay: PROTAC activity at CRBN/CDK13 in human MDA-MB-231 cells assessed as induction of CDK13 degradation at 1 uM pretreated with pomalidomide followed by compound addition and measured after 10 hrs by immunoblotting analysis; type: cell-based
[12] = biological target: T1, Protein cereblon/Cyclin-dependent kinase 12 (Homo sapiens); assay: PROTAC activity at CRBN/CDK12 in human MDA-MB-231 cells assessed as induction of CDK12 degradation at 1 uM pretreated with 3-benzyl-1-((1r,4r)-4-((5-cyanopyridin-2-yl)amino)cyclohexyl)-1-(4-(piperazin-1-yl)phenyl)urea followed by compound addition and measured after 10 hrs by immunoblotting analysis; type: cell-based
[13] = biological target: T2, Protein cereblon/Cyclin-dependent kinase 13 (Homo sapiens); assay: PROTAC activity at CRBN/CDK13 in human MDA-MB-231 cells assessed as induction of CDK13 degradation at 1 uM pretreated with 3-benzyl-1-((1r,4r)-4-((5-cyanopyridin-2-yl)amino)cyclohexyl)-1-(4-(piperazin-1-yl)phenyl)urea followed by compound addition and measured after 10 hrs by immunoblotting analysis; type: cell-based
MDA-MB-231 [14] = assay: Induction of CCNK degradation in human MDA-MB-231 cells at 2 uM incubated for 8 hrs by global proteomic analysis; type: cell-based
[15] = biological target: T2, Protein cereblon/Cyclin-dependent kinase 13 (Homo sapiens); assay: PROTAC activity at CRBN/CDK13 in human MDA-MB-231 cells assessed as induction of CDK13 degradation at 2 uM by […] proteomic analysis; type: cell-based
MDA-MB-231 [16] = assay: Downregulation of ATM mRNA expression in human MDA-MB-231 cells incubated for 12 hrs by RT-qPCR analysis; type: functional, cell-based; settings: dose 60-300 nM
MDA-MB-231 [17] = assay: Downregulation of ATR mRNA expression in human MDA-MB-231 cells incubated for 12 hrs by RT-qPCR analysis; type: functional, cell-based; settings: dose 60-300 nM
MDA-MB-231 [18] = assay: Downregulation of BRCA2 mRNA expression in human MDA-MB-231 cells incubated for 12 hrs by RT-qPCR analysis; type: functional, cell-based; settings: dose 60-300 nM
MDA-MB-231 [19] = assay: Downregulation of FANCD2 mRNA expression in human MDA-MB-231 cells incubated for 12 hrs by RT-qPCR analysis; type: functional, cell-based; settings: dose 60-300 nM
MDA-MB-231 [20] = assay: Downregulation of ATM protein level in human MDA-MB-231 cells at 0.1 to 0.5 uM incubated for 48 hrs by immunoblotting analysis; type: functional, cell-based; settings: dose 0.1-0.5 µM
MDA-MB-231 [21] = assay: Downregulation of RAD51 protein level in human MDA-MB-231 cells at 0.1 to 0.5 uM incubated for 48 hrs by immunoblotting analysis; type: functional, cell-based; settings: dose 0.1-0.5 µM
[22] = Antiproliferative activity against HEK293 cells assessed as inhibition of cell growth incubated for 5 days by CCK8 assay; type: toxicity, cell-based; settings: human
MDA-MB-231 [23] = assay: Synergistic antiproliferative activity against human MDA-MB-231 cells assessed as inhibition of cell growth at 0.3 to 7.5 uM incubated for 5 days in presence of cisplatin by CCK8 assay; type: functional, cell-based; settings: dose 0.3-7.5 µM, time 5.0 day
MDA-MB-231 [24] = assay: Synergistic antiproliferative activity against human MDA-MB-231 cells assessed as inhibition of cell growth at 0.3 to 7.5 uM incubated for 5 days in presence of olaparib by CCK8 assay; type: functional, cell-based; settings: dose 0.3-7.5 µM, time 5.0 day
MDA-MB-231 [25] = assay: Synergistic antiproliferative activity against human MDA-MB-231 cells assessed as combination index at 0.3 uM incubated for 5 days in presence of cisplatin by CCK8 assay; type: functional; settings: time 5 day
MDA-MB-231 [26] = assay: Synergistic antiproliferative activity against human MDA-MB-231 cells assessed as combination index at 1.5 uM incubated for 5 days in presence of cisplatin by CCK8 assay; type: functional; settings: time 5 day
MDA-MB-231 [27] = assay: Synergistic antiproliferative activity against human MDA-MB-231 cells assessed as combination index at 7.5 uM incubated for 5 days in presence of cisplatin by CCK8 assay; type: functional; settings: time 5 day
MDA-MB-231 [28] = assay: Synergistic antiproliferative activity against human MDA-MB-231 cells assessed as combination index at 1.5 uM incubated for 5 days in presence of olaparib by CCK8 assay; type: functional; settings: time 5 day
[29] = biological target: T1, Protein cereblon/Cyclin-dependent kinase 12 (Homo sapiens); assay: In vivo PROTAC activity at CRBN/CDK12 in female CB17SCID mouse model xenografted with human MDA-MB-231 cells assessed as reduction in CDK12 protein expression in tumor at 100 to 200 mg/kg, po administered for 5 days by immunoblotting analysis; type: functional, organism-based; settings: dose 100-200 mg/kg, time 5.0 day
MDA-MB-231 [30] = assay: Antiproliferative activity against human MDA-MB-231 cells xenografted in female CB17SCID mouse model assessed as induction of tumor apoptosis at 200 mg/kg, po administered for 5 days by H and E staining based immunohistochemical analysis; type: functional, organism-based; settings: time 5.0 day
MDA-MB-231 [31] = assay: Antiproliferative activity against human MDA-MB-231 cells xenografted in female CB17SCID mouse model assessed as increase in TUNEL signaling in tumor at 200 mg/kg, po administered for 5 days by TUNEL staining based immunohistochemical analysis; type: functional, organism-based; settings: time 5.0 day

T2 sequence (Q14004 whole entry, looked up): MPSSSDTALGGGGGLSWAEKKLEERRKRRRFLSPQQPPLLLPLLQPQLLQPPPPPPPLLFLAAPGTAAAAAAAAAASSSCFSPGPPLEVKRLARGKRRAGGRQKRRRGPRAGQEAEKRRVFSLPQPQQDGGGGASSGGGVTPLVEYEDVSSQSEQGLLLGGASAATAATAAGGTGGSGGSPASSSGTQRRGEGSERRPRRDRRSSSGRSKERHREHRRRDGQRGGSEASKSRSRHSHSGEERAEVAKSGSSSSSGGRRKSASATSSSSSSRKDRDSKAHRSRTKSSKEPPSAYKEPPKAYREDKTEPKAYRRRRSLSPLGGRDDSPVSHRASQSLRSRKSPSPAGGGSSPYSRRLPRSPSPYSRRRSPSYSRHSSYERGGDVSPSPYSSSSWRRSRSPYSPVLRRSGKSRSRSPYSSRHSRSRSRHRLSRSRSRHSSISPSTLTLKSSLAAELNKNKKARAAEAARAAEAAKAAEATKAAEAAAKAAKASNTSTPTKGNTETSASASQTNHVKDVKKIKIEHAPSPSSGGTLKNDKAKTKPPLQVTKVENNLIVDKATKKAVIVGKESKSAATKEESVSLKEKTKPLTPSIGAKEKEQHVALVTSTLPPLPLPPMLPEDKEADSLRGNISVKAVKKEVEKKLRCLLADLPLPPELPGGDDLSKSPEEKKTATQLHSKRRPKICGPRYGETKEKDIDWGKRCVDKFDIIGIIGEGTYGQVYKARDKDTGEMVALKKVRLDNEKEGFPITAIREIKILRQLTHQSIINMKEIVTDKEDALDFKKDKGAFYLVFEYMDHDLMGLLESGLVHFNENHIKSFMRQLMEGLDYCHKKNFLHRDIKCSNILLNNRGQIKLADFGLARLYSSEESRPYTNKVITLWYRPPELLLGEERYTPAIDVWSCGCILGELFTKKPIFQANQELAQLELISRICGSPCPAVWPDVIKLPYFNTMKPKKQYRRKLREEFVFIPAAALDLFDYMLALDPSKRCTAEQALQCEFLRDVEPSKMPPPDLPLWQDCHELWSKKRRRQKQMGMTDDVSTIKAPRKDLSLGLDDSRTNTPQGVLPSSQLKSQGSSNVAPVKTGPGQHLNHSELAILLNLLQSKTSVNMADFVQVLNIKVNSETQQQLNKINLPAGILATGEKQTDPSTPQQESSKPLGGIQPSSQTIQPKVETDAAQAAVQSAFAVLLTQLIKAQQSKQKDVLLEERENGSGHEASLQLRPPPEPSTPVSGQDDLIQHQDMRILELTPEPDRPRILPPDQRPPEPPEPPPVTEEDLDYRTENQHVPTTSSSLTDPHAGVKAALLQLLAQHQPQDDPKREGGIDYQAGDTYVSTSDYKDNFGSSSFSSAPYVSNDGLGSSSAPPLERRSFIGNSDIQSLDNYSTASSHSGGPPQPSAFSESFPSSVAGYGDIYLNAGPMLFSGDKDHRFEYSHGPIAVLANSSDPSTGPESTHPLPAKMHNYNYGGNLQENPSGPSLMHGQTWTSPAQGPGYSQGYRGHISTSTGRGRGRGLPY
T2 sequence (Q96SW2 whole entry, looked up): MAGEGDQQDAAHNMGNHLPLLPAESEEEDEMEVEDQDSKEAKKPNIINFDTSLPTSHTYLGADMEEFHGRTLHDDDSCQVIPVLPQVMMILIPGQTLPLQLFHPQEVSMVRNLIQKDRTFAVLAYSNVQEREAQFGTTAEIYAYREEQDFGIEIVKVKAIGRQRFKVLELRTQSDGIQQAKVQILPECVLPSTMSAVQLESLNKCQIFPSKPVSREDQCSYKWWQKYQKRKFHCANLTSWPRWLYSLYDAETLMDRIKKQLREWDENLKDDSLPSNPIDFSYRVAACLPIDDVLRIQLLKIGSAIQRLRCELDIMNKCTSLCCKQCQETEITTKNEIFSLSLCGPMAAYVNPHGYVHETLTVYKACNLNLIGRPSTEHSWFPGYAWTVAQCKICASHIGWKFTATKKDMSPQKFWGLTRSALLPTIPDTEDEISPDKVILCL
T1 sequence (Q96SW2 whole entry, looked up): as above
T1 sequence (Q9NYV4 whole entry, looked up): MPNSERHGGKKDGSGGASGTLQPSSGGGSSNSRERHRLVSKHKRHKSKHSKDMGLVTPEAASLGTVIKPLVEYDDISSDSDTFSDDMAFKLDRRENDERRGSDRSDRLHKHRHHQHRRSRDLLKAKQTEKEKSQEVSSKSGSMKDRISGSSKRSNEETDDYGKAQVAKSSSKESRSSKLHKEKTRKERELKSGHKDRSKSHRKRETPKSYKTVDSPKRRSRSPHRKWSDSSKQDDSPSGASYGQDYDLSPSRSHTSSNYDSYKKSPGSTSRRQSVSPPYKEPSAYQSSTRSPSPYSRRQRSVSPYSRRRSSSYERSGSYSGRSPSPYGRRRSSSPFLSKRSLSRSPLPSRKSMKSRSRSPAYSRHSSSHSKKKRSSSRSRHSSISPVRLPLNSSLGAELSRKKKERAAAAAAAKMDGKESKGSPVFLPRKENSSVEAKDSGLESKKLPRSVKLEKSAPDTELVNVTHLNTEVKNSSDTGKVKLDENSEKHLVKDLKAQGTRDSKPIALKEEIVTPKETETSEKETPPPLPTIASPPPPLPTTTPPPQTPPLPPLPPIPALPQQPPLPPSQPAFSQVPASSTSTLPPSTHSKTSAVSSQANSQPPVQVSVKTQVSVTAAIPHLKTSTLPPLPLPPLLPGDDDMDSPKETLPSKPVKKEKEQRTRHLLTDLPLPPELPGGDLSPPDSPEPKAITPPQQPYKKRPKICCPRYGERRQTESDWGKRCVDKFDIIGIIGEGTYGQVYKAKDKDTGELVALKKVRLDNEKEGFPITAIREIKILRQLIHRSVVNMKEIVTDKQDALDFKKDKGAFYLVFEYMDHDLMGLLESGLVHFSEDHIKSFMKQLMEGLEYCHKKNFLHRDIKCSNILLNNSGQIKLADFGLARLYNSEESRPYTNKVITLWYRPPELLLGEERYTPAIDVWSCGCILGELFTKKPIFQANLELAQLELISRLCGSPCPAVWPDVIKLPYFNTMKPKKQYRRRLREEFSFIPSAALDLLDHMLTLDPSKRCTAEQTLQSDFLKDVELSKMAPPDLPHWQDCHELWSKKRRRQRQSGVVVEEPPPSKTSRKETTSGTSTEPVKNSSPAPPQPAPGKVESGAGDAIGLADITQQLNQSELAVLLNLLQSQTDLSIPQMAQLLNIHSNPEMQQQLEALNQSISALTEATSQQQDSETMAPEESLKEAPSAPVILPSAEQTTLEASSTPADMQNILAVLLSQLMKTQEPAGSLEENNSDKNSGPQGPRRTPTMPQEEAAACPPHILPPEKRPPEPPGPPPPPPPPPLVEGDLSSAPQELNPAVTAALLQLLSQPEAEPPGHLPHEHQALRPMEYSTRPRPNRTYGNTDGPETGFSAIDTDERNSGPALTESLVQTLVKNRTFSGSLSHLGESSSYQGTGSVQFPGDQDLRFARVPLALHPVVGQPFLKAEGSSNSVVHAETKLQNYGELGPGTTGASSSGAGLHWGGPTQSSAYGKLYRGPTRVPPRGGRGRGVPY

Activity [1]: Dose-Dependent Effect
Activity [2]: Dose-Dependent Effect
Activity [3]: Dose-Dependent Effect
Activity [4]: Dose-Dependent Effect
Activity [5]: inactive
Activity [6]: inactive
Activity [7]: inactive
Activity [8]: Active
Activity [9]: Active
Activity [10]: inactive
Activity [11]: inactive
Activity [12]: inactive
Activity [13]: inactive
Activity [15]: Active
Activity [29]: Active
SMILES: N#Cc1ccc(N[C@H]2CC[C@H](N(C(=O)NCc3ccccc3)c3ccc(N4CCN(C5CCN(c6cc7c(cc6F)C(=O)N(C6CCC(=O)NC6=O)C7=O)CC5)CC4)cc3)CC2)nc1 (stereo partly specified)
Activity (MDA-MB-231 [14]): Active
Activity (MDA-MB-231 [16]): Dose-Dependent Effect
Activity (MDA-MB-231 [17]): Dose-Dependent Effect
Activity (MDA-MB-231 [18]): Dose-Dependent Effect
Activity (MDA-MB-231 [19]): Dose-Dependent Effect
Activity (MDA-MB-231 [20]): Active
Activity (MDA-MB-231 [21]): Active
IC50 at 5 days [22]: > 10 µM
Activity (MDA-MB-231 [23]): Active
Activity (MDA-MB-231 [24]): Active
CI (MDA-MB-231 [25]): >1
CI (MDA-MB-231 [26]): 0.17
CI (MDA-MB-231 [27]): 0.07
CI (MDA-MB-231 [28]): 0.9
Activity (MDA-MB-231 [30]): Active
Activity (MDA-MB-231 [31]): Active
